{"source": "patent US12599592B2", "about": "“Therapeutic small molecules for treatment of pulmonary hypertension” (UNIVERSITY OF PITTSBURGH—OF THE COMMONWEALTH SYSTEM OF …, priority 2020, dated 2026)", "key": {"[1]": {"tested_on": "monocrotaline-exposed pulmonary arterial hypertension rats", "test": "Monocrotaline (MCT) pulmonary arterial hypertension rat model", "conditions": "BRD2889 5 mg/kg i.p. every 5 days, Days 12-26 post-MCT", "description": "Following euthanasia, right ventricle/[left ventricle+septum]\nMeasurement of GST activity: The GST activity from lung tissue and PAECs was assayed using GST assay kit (Cayman, MI, USA) per the manufacturer's instructions."}, "[2]": {"molecular_target": "T1, glutathione S-transferase (GST) activity / GSTP1 (Homo sapiens, UniProt P09211)", "T1 construct": "endogenous in cells; host or cells: primary human PAECs (hypoxia or IL-6/sIL-6R+hypoxia)", "T1 sequence (P09211 2-210 limits assumed)": "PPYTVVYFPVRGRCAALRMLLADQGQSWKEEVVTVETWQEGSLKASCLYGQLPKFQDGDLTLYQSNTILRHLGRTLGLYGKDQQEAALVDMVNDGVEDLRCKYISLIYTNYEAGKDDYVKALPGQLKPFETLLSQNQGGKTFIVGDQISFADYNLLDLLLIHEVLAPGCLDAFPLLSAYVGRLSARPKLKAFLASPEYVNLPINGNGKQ", "test": "GST activity in PAECs", "format": "cell-based", "description": "For hypoxia exposure, cells were plated in 6-well cell culture plates at 1×10^5 cells/well, grown for 24 hr and placed into a normobaric hypoxia chamber (1% O2) for 24 h under specific treatment conditions. Namely, for I-BET and siLGALS8 exposures, cells were either pre-treated with I-BET/vehicle control (VC) or transfected with siLgals8/Scr for 24 h. Then, they were cultured in basal media at 1% 02. After 24 h, caspase activity and mitochondrial superoxide levels were quantified. To detect activation status of pSTAT1/STAT1 by immunoblot, cells were exposed to 8 h of hypoxia.\n(§1) In IL-6/sIL-6R+hypoxia experiments, a human recombinant IL-6/IL-6R alpha protein chimera (25 ng/ml, Millipore) was administered at 70-80% confluency for 48 h in complete media along with vehicle control (DMSO, Sigma-41639). BRD2889 (1 uM) vs. vehicle control were added, as indicated, and placed into a hypoxia chamber for 24 h. The hypoxia chamber (modular incubator chamber) was obtained from Billups-Rothenberg Inc. (Del Mar, Calif) and placed in regulated CO2 incubator at 37° C."}, "glutathionylated ISCU": {"tested_on": "glutathionylated ISCU", "test": "ISCU glutathionylation by immunoprecipitation and immunoblot in PAECs", "format": "cell-based, human", "conditions": "hypoxic PAECs, BRD2889 1 mM, 24 h", "description": "Protein stability assay: The proteasome inhibitor MG132 (M7449, Sigma) was stored at −20° C. at a concentration of 10 mM diluted in dimethyl sulfoxide (DMSO). PAECs were exposed to MG132 ([…]) vs. DMSO vehicle control for 2 hr under hypoxia, prior to harvesting of cellular lysate for immunoblotting.\nImmunoblot and densitometry: Cells were lysed in RIPA buffer (Sigma) along with 1× protease inhibitor cocktail (Sigma). Protein lysate was resolved by gradient 4%-15% SDS-PAGE gels and transferred onto a 0.2 μm PVDF membrane (Bio-Rad). Membranes were blocked in 5% non-fat milk in 1×PBST buffer for one hour at room temperature. Later, they were incubated in the presence of the primary antibody overnight at 4° C. and then appropriate HRP-conjugated secondary antibodies (Life Technologies). […] The images were later quantified using AlphaEaseFC software (Alpha Innotech).\nImmunoprecipitation: PAECs were transfected with the indicated combinations of siRNAs by Lipofectamine 2000 (Thermo Fisher Scientific) according to the manufacturer's instructions and/or treated with BRD2889 ([…], 24 h). […] After extensive washing, the immunoprecipitated proteins were analyzed by immunoblotting with the indicated antibodies."}, "C43 genes ISCU and mTOR": {"tested_on": "C43 genes ISCU and mTOR", "test": "RT-qPCR of Cluster 43 genes in PASMCs", "format": "cell-based, human", "conditions": "BRD2889 5 uM", "from_the_text": "Cell culture: Primary human pulmonary artery endothelial cells (PAECs) and human pulmonary artery smooth muscle cells (PASMCs) were purchased from Lonza (302-05A, CC-2581). Of note, the same two male donors were the source of all PAECs in the experiments shown. Two additional male donors were the source for all PASMCs in the experiments shown. Cells from these and any donors were characterized by flow cytometry for consistent expression of cell surface markers and by RNA (RT-qPCR) analysis of endothelial and smooth muscle gene expression. PAECs were cultured in EGM-2 media (CC-3121) along with supplements (CC-4133), and PASMCs were cultured in SmGM-2 culture media (Lonza, CC-3182) at 5% CO2 in a humidified incubator.\nRT-qPCR analysis: Cells were lysis in 1 ml of QiaZol reagent (Qiagen). Total RNA content was extracted using the RNeasy kit (Qiagen), according to the manufacturer's instructions. Total RNA concentration was determined using a BioTek Synergy multimode plate reader. Messenger RNAs were reverse transcribed to generate cDNA using the Multiscript RT kit (Thermo Fisher Scientific). cDNA for specific gene targets was amplified and quantified via fluorescently-labeled Taqman primer sets and Taqman fast advanced master mix (Thermo Fisher Scientific) using an Applied Biosystems QuantStudio 6 Flex Real-Time PCR System."}, "GST activity": {"tested_on": "GST activity", "test": "GST activity in PASMCs", "format": "cell-based, human", "conditions": "IL-6/R + hypoxia, BRD2889 1 uM", "description": "as §1"}, "mitochondrial Complex I": {"tested_on": "mitochondrial Complex I", "test": "Mitochondrial Complex I activity in PASMCs", "format": "cell-based, human", "conditions": "IL-6/sIL-6R + hypoxia", "description": "as §1\nMitochondria isolation: Mitochondrial fraction from cultured PAECs with drug and siGSTP1 using the Mammalian Mitochondria Isolation Kit for Tissue & Cultured Cells (Biovision, Inc.) according to the manufacturer's instructions.\nMeasurement of mitochondrial complex activities: Complex I activity of isolated mitochondria were measured using Complex I Enzyme Activity Microplate assay kit (Abcam, ab109721) according to the manufacturer's protocol. These enzymes were captured within the wells of the microplate coated by the corresponding complex enzyme antibody, and activities were detected colorimetrically."}, "PASMCs": {"tested_on": "PASMCs", "test": "Apoptosis (caspase 3/7) in PASMCs", "format": "cell-based, human", "conditions": "IL-6/sIL-6R + hypoxia", "description": "as §1\nCellular apoptosis: Caspase-3/7 activity was quantified using the Caspase-Glo 3/7 Assay (Promega), according to manufacturer's instructions. Caspase-3/7 activity was normalized to total protein content determined by BCA method (Thermo Fisher Scientific)."}, "[3]": {"molecular_target": "glutathione S-transferase pi 1 (GSTP1) (Homo sapiens, UniProt P09211)", "sequence (P09211 whole entry, species assumed)": "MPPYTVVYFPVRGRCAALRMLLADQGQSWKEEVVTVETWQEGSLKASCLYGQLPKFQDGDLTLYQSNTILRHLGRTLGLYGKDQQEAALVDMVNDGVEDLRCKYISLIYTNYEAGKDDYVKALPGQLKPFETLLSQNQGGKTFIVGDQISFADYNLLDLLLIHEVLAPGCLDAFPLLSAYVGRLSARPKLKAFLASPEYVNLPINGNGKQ", "conditions": "literature report; cited from earlier work"}}}
{"smiles": "COc1ccc(C#CC2CCCN(C(=O)/C=C/c3cc(OC)c(OC)c(OC)c3)C2=O)cc1", "note": "(stereo not drawn) [BRD2889]", "values": [{"measurement": "Fulton index (RV/LV+S)", "setting": "[1]", "value": "reduced"}, {"measurement": "RVSP", "setting": "[1]", "value": "reduced"}, {"measurement": "arteriolar muscularization", "setting": "[1]", "value": "reduced"}, {"measurement": "cleaved caspase-3 (CC-3)", "setting": "[1]", "value": "decreased"}, {"measurement": "endothelial ISCU", "setting": "[1]", "value": "increased"}, {"measurement": "lung GST activity", "setting": "[1]", "value": "decreased"}, {"measurement": "GSTP1 (GST) activity", "setting": "[2]; PAECs, IL-6/sIL-6R + hypoxia, BRD2889 1 uM", "value": "reversed the increase"}, {"measurement": "GST enzyme activity", "setting": "[2]; hypoxic PAECs", "value": "reduced the hypoxic increase"}, {"measurement": "ISCU glutathionylation (α-GSH immunoblot after α-ISCU pulldown)", "setting": "glutathionylated ISCU", "value": "converse reduction of glutathionylation"}, {"measurement": "hypoxia-induced reduction in ISCU transcript", "setting": "C43 genes ISCU and mTOR", "value": "unaffected"}, {"measurement": "mTOR transcript", "setting": "C43 genes ISCU and mTOR; hypoxia", "value": "no change"}, {"measurement": "GST activity", "setting": "GST activity", "value": "did not affect"}, {"measurement": "mitochondrial Complex I activity", "setting": "mitochondrial Complex I", "value": "did not affect"}, {"measurement": "apoptosis", "setting": "PASMCs", "value": "only subtly changed"}, {"measurement": "inhibition of GSTP1", "setting": "[3]", "value": "known to inhibit"}]}
